This is an account of results in US20080305100A1, “Activated Protein C Inhibits Undesirable Effects of Plasminogen Activator in the Brain” (priority 2004, published 2008).

The subject of data set [1] is human BEC. The data set is described as follows: tPA/hypoxia in human BEC: cell injury by LDH release. The data set is classed as cell-based. Conditions: for LDH release into the medium from ischemic BEC: tPA 20 μg/ml plus hypoxia/aglycemia. As to the method:
(§1) Primary human BEC were isolated from rapid autopsies from neurologically normal young individuals after trauma and cultured as we have previously described^20. Cells were maintained in serum-free Dulbeco's Modified Eagle Medium and exposed for 1 hr to 16 hr to tPA (20 μg/ml) under normoxic conditions (20% oxygen, 5 mM glucose), hypoxia (<2% oxygen, no glucose), or to tPA plus hypoxia. Hypoxia was induced using an anaerobic chamber (Form a Scientific, Holbrook, N.Y.)^20. The levels of O2 were monitored by O2 Fyrite (Form a Scientific). z-IETD-fmk (10 μM) or z-LEHD-fmk (15 μM) was applied 2 hr prior to tPA/hypoxia treatment. Human APC (10 nM to 600 nM) was added at the time of tPA/hypoxia treatment. Caspase-3, -8 or -9 activity was determined in the presence of 400 nM APC.
(§2) Cell injury in BEC was detected by the release of LDH (LDH assay, Sigma). The Hoechst dye (Hoechst 33,342, Sigma) and in situ terminal deoxynucleotidyl transferase-mediated digoxigenin-dUTP nick-end labeling (TUNEL) (Phoenix Flow Systems, San Diego, Calif.) assays were performed on acetone-fixed BEC or paraformaldexyde-fixed neurons. Images were visualized using a Nikon TE2000-U microscope.

Data set [2] concerns human BEC. Briefly: tPA/hypoxia in human BEC: apoptosis (TUNEL). In kind it is cell-based. On the procedure:
as §1, §2

In data set [3] the test system is caspase-9. The data set is described as follows: Caspase-9 activity in BEC lysate. The data set is classed as cell-based, human. The following applies: tPA 20 μg/ml plus hypoxia. As to the method:
as §1
(§3) BEC or cortical neuron lysate was incubated at 37° C. with caspase-3 (DEVD-pNA), caspase-8 (IETD-pNA) (ApoAlert caspase assay kit; Clontech, Palo Alto, Calif.), or caspase-9 (Ac-LEHD-pNA; Chemicon; Temecula, Calif.) substrate. Substrate hydrolysis was determined as absorbance change at 405 nm in a microplate reader^23. Enzymatic activity was expressed in arbitrary units per mg of protein.

For data set [4], the system named is caspase-8. The data set is described as follows: Caspase-8 activity in BEC lysate. In kind it is cell-based, human. The following applies: tPA plus hypoxia, at 1 hr; remained elevated over 16 hr vs hypoxia alone. As to the method: as §1, §3
For data set [5], the system named is caspase-3. Briefly: Caspase-3 activity in BEC lysate. In kind it is cell-based, human. The following applies: for increase in caspase-3 activity compared to hypoxia alone: tPA plus hypoxia; for inhibition in caspase-3 activation in hypoxic BEC: absence of tPA; for inhibition in caspase-3 activation in hypoxic BEC / inhibition of caspase-3 activation in hypoxic BEC: z-IETD-fmk 10 μM, z-LEHD-fmk 15 μM applied 2 hr prior; for inhibition of caspase-3 activation in hypoxic BEC: presence of tPA. On the procedure:
as §1, §3

A further data set concerns mouse cortical neurons. The data set is described as follows: tPA/NMDA-induced apoptosis in neurons. The data set is classed as cell-based. As to the method:
(§4) Primary neuronal cultures were prepared from fetal C57BU6J mice as we have previously described^23. Cultures were maintained in serum-free NEUROBASAL medium plus B27 supplement (Gibco BRL, Rockville, Md.) in a humidified 5% CO2 incubator at 37° C. for 14 days before 3 hr to 24 hr treatment with tPA (20 μg/ml) alone, NMDA (25 μM)/5 μM glycine, or tPA plus NMDA. Ac-DEVD-CHO (50 μM), z-IETD-fmk (20 μM), or z-LEHD-fmk (5 μM) was applied 3 hr prior to tPA/NMDA treatment. Mouse recombinant APC (20 nM) was added 30 min before tPA/NMDA treatment.
as §2

For data set [6], the system named is caspase-9. Briefly: Caspase-9 activity in cortical neuron lysate. The data set is classed as cell-based, mouse. As to the method: as §4, §3
Data set [7] deals with caspase-8. Briefly: Caspase-8 activity in cortical neuron lysate. In kind it is cell-based, mouse. The following applies: for tPA-induced increase in caspase-8 activation: tPA/NMDA treated neurons, APC 20 nM, z-IETD-fmk 20 μM, z-LEHD-fmk 5 μM. As to the method:
as §4, §3

In data set [8] the test system is caspase-3. Briefly: Caspase-3 activity in cortical neuron lysate. The data set is classed as cell-based, mouse. As to the method:
as §4, §3

A further data set deals with AIF. The data set is described as follows: Western blot of AIF in nuclear extracts of NMDA/tPA treated neurons. Conditions: for AIF nuclear translocation in the presence of tPA (NMDA/tPA injury): effect of APC or caspase inhibitor. The data set is classed as cell-based, mouse. As to the method: as §4
(§5) Whole cellular extracts, nuclear proteins, or cell membrane fractions were prepared as we have previously described^23. The relative abundance of each protein was determined by scanning densitometry using β-actin as an internal control. Data from multiple Western blots (n=3-5) were averaged for statistical analysis.

Data set [9] concerns the target T1, NR1 or the NR2A subunit of the NMDA receptor (Mus musculus, UniProt P35436+P35438).
T1 construct: Western blot analysis of NR1 and NR2A subunits in membrane fractions 24 h after treatment with tPA; endogenous in cells; host or cells: primary cortical neurons from fetal C57BL/6J mice
The data set is described as follows: Western blot of NR1 and NR2A subunits in membrane fractions after tPA. In kind it is cell-based. The following applies: 24 h after treatment with tPA. As to the method:
as §4, §5

A further data set relates to p53, Bax, Bcl-2. The data set is described as follows: Western blot of p53, Bcl-2 and Bax in NMDA-treated neurons. The following applies: tPA plus NMDA vs NMDA. The data set is classed as cell-based, mouse. As to the method:
as §4, §5

A further data set has as its system mouse stroke model. Briefly: In vivo stroke model (45 min MCA occlusion/24 hr reperfusion). Conditions: tPA 10 mg/kg iv. As to the method: Protocols were approved by the Animal Care Committee at the University of Rochester using National Institutes of Health guidelines. Vehicle, tPA (10 mg/kg, 10% bolus/90% infusion), or tPA plus mouse recombinant APC (0.02 mg/kg to 1 mg/kg, 50% bolus/50% infusion) were administered via the femoral vein using separate intravenous lines and our previously described mouse stroke model^19,20 modified to 45 min MCA occlusion/24 hr reperfusion. tPA was infused during the last 10 min of MCA occlusion and for 20 min into reperfusion. APC was infused either simultaneously with tPA, after tPA infusion, or before tPA infusion. The dose of tPA used here has been frequently used in rodents and is considered to be equivalent to the therapeutic dose in humans^12,13,44,50. CBF was monitored by laser Doppler flowmetry (Transonic Systems)^19. Arterial blood gasses were measured^19. Neurological examinations were performed at 24 hr and scored: no neurological deficit (O), failure to extend left forepaw fully (1), turning to left (2), circling to left (3), unable to walk spontaneously (4), or stroke-related death (5). Neuropathological analysis was performed at 24 hr. Unfixed 1-mm coronal brain slices at the level of optic chiasm were incubated in 2% triphenyltetrazolium chloride in phosphate buffer (pH 7.4). Brain injury, infarct, and edema volumes were determined as previously described^19,20. Fibrin deposition was quantified by Western blotting with anti-fibrin II antibody (1:500, NYB-T2G1; Accurate Chemical Scientific Corp.)^19,20,30 and leukocytes were stained with CD11b antibody (1:250, DAKO Corp.)^19,20. Hemoglobin was determined by a spectrophotometric assay using Drabkin's reagent (Sigma) as we have previously described^19.

A further data set has as its system MMP-9. Briefly: MMP gelatin zymography of BEC conditioned medium. The following applies: tPA 20 μg/ml, hypoxic BEC, 4 hr. In kind it is cell-based, human. As to the method:
The conditioned medium from BEC exposed to tPA (20 μg/ml) or hypoxia for 4 hr, in the absence or presence of human APC (50 nM to 1,000 nM), was analyzed by gelatin zymography as previously described^11. […] MMP-9 activity was quantified as fold increase compared with normoxic controls.

Take “tPA: Human recombinant tPA (alteplase, Genentech); in some in vitro studies human recombinant tPA from Sigma”: the “LDH release into the medium from ischemic BEC” value in the data set with human BEC [1] (2 hr, background values in the absence of tPA) worked out at 50%. Also, in the data set on human BEC [1] (4 hr, 57% in the absence of tPA), the “LDH release into the medium from ischemic BEC” value is 95%. Besides, in the data set with human BEC [1] (tPA alone, normoxia), the “LDH release from normoxic BEC” value is listed as “did not affect”. For the same substance, the “number of TUNEL-positive hypoxic BEC” value in the data set on human BEC [2] (tPA plus hypoxia, 4 hr, 60% for hypoxia alone) came out at 100%. Besides, the “caspase-9 activity in hypoxic BEC relative to hypoxia alone” value in the data set with caspase-9 [3] is “did not produce a significant increase”. Besides, the “activation of caspase-8 in ischemic BEC” value in the data set with caspase-8 [4] was “early and sharp increase”. Moreover, in the data set on caspase-3 [5] (at 4 hr), the “increase in caspase-3 activity compared to hypoxia alone” value was 2.8 fold. Besides, in the data set with caspase-3 [5] (within 16 hr), the “increase in caspase-3 activity compared to hypoxia alone” value is reported as more than 3.0 fold. Besides, the “number of apoptotic neurons” value in the data set with mouse cortical neurons (tPA 20 μg/ml, 24 hr after exposure to NMDA, vs NMDA alone) was “doubles”. In addition, the “effect on neuronal cells” value in the data set on mouse cortical neurons (tPA alone, no NMDA) is recorded as “did not affect”. Moreover, in the data set on caspase-9 [6] (tPA 20 μg/ml plus NMDA 25 μM), the “caspase-9 activation, tPA/NMDA compared to NMDA alone” value is “did not alter”. Besides, the “activation of caspase-9” value in the data set on caspase-9 [6] (tPA alone, no NMDA) is reported as “did not affect”. For the same substance, the “caspase-8 in neurons, tPA/NMDA compared to NMDA alone” value with caspase-8 [7] (tPA 20 μg/ml plus NMDA 25 μM) was “robust activation”. In the data set on caspase-8 [7] (tPA alone, no NMDA), the “activation of caspase-8” value was “did not affect”. Moreover, the “caspase-3 activation relative to NMDA alone” value in the data set on caspase-3 [8] (tPA 20 μg/ml plus NMDA 25 μM) is on record as “increased”. Also, the “activation of caspase-3” value in the data set with caspase-3 [8] (tPA alone, no NMDA) is “did not affect”. Moreover, in the data set with AIF (tPA plus NMDA vs NMDA), the “increase of nuclear translocation of AIF in the presence of NMDA” value is recorded as 50%. For the same substance, the “proteolytic effect on the NMDA receptor (NR1, NR2A subunit)” value in [9] is given as “failed to cleave”. Moreover, in the data set with p53, Bax, Bcl-2, the “NMDA-mediated increases in p53 and Bax expression, decrease in Bcl-2 expression” value was “did not affect”. Also, in the data set with mouse stroke model, the “improvement of post-ischemic cerebral blood flow (CBF) vs vehicle” value amounted to 35%, the “increase in the level of hemoglobin in the ischemic hemisphere” value was “greater than 3.0 fold” and the “ischemic brain fibrin deposition” value is given as “background level”. In the data set with mouse stroke model (24 hr reperfusion), the “increase of volume of edema compared to controls” value came to 155%, the “increase of volume of infarction compared to controls” value came out at 75% and the “volume of cerebral injury compared to controls” value is “almost doubled”. The same substance came in with a motor neurological score with mouse stroke model (24 hr, controls 2.3, scale 0-5) of 3.5. Further, in the data set on mouse stroke model (CD11b-positive leukocytes), the “increase of brain accumulation of leukocytes” value was “about 65%”. For the same substance, the “mice with substantial hemorrhage” value with mouse stroke model (MCA stroke model) is listed as 6/6. In the data set with MMP-9, the “potentiation of hypoxia-induced MMP-9 activation” value is “about 2.0 fold”.

z-IETD-fmk: the “tPA-induced apoptosis in ischemic BEC” value in the data set with human BEC [2] (discussion summary) is listed as “abolished”. In the data set on caspase-3 [5], the “inhibition in caspase-3 activation in hypoxic BEC” value is listed as “less than 15%” and the “inhibition of caspase-3 activation in hypoxic BEC” value was “greater than 95%”. Also, the “tPA-induced apoptosis in NMDA-treated neurons” value in the data set on mouse cortical neurons (discussion summary) is reported as “abolished”. Further, the “tPA-induced increase in caspase-8 activation” value in the data set on caspase-8 [7] was “abolished”. In addition, the “AIF nuclear translocation in the presence of tPA (NMDA/tPA injury)” value (shortened to “AIF nuclear translocation … (NMDA/tPA injury)”) in the data set on AIF is listed as “blocked”.

As for Ac-DEVD-CHO, the “AIF nuclear translocation … (NMDA/tPA injury)” value in the data set on AIF is “blocked”.

Take z-LEHD-fmk: in the data set on caspase-3 [5], the “inhibition in caspase-3 activation in hypoxic BEC” value is recorded as “greater than 85%” and the “inhibition of caspase-3 activation in hypoxic BEC” value is listed as “only slightly inhibited”. Also, the “tPA-induced increase in caspase-8 activation” value with caspase-8 [7] was “without effect”. Moreover, in the data set with caspase-3 [8] (NMDA alone, no tPA, z-LEHD-fmk 5 μM), the “reduction of caspase-3 activation in cells treated with NMDA alone” value is given as “greater than 80%”. The “AIF nuclear translocation … (NMDA/tPA injury)” value in the data set on AIF is “much less effective”.
